Where two headings read alike, the source gives them in different places. One block for each compound: values may come before it.
What was measured:
[1] = test system: RS4-11; assay: CellTiter-Glo cell viability assay, RS4-11; format: cell-based; conditions: ALL; for IC50: Homo sapiens, RS4-11, 72 hours
Protocol: (§1) Cell Viability Assay—Cell viability was measured by the CellTiter-Glo® cell viability assay Promega (Madison, Wis.). The CellTiter-Glo® Luminescent Cell Viability Assay is a homogeneous method to determine the number of viable cells in culture based on quantitation of the ATP present, which signals the presence of metabolically active cells. Following treatment, CellTiter-Glo® is added to treatment wells and incubated at 37° C. luminescence values were measured at using a Molecular Devices Spectramax microplate reader.
(§2) Single Agent Studies—Cells were grown to 70% confluency, trypsinized, counted, and seeded in 96 well flat-bottom plates at a final concentration of 2.5×10^3-5×10^3 cells/well (Day 0). Cells were allowed to incubate in growth media for 24 hours. Treatment with the test agents began on Day 1 and continued for 72 hours. At the 72-hour time point, treatment-containing media was removed. Viable cell numbers are quantified by the CellTiter-Glo® cell viability assay as described above. Experiments were run with triplicate concentrations to determine growth inhibitory activity. Results from these studies were used to calculate an IC50 value (concentration of drug that inhibits cell growth by 50 percent of control) for each compound.
(§3) Data Collection—For single agent and combination studies, data from each experiment was collected and expressed as % Cell Growth using the following calculation: % Cell Growth=(ftest/fvehicle)×100
(§4) Where ftest is the luminescence of the tested sample, and fvehicle is the luminescence of the vehicle in which the drug is dissolved. Dose response graphs and IC50 values were generated using Prism 6 software (GraphPad).

[2] = test system: RAMOS; assay: CellTiter-Glo cell viability assay, RAMOS; format: cell-based; conditions: Lymphoma; for IC50: Homo sapiens, 72 hours
Protocol: as §1, §2, §3, §4

[3] = Pharmacokinetic studies in the mouse; format: in vivo; conditions: for Vd: read-out: Vss; for Vd/F: read-out: Vz/F obs
Protocol: Plasma samples were collected from healthy mice and analyzed for levels of compound ID #1, ID #2, and ID #3 and reported in Table 5. In brief, compounds were individually and accurately weighed out to produce a stock solution in Dimethyl-sulfoxide (DMSO) at a concentration of 2 mg/mL and stored at −20° C. From the stock solution, a working stock was prepared by diluting it in Methanol-Water 50:50 (v/v) at 20 μg/mL for calibration curve preparation and stored at 4° C. Standards used for quantitation and quality control samples (QC's) were prepared on the same day of sample processing using blank plasma obtained from non-treated mice. For each analyte, standards were prepared through serial dilution of the working stock at concentrations of 0.1, 0.5, 1.0, 10, 50, 100, 500 and 1000 ng/mL; QC's were prepared at intermediate concentrations of 0.75, 7.5, 75 and 750 ng/mL. Plasma samples were stored at −80° C. until ready for analysis and then placed on ice for thawing. An aliquot of 20 μL for samples, standards and QC's, were transferred into a 96-well extraction plate according to a pre-defined layout. Appropriate volume of Methanol-Formic Acid 99.9-0.1 containing internal standard (Verapamil at 25 ng/mL) was added to each well and samples were extracted under vacuum. Eluent was then transferred into a LCMS plate for analysis using a suitable column for separation and MRM detection. Concentration of analytes was calculated based on the calibration curve and analyzed for pharmacokinetic parameters by using Non-compartmental analysis (NCA) using WinNonlin Phoenix software. Parameters such as Cmax, Tmax, half-life, AUC(0-last), AUC(0-∞), volume of distribution (Vss) and clearance (Cl/F) were reported.
The analogs were tested for pharmacokinetic analysis in the mouse with doses of 1 mg/kg for intravenous (IV) route and 5 mg/kg for oral (P0) route. […] Overall exposure following IV dose also favored compound ID #1 with AUCO-∞ 1488.1 hr*ng/mL whereas compound ID #2 and ID #3 were 329.1 and 1193.7 hr*ng/mL, respectively.

[4] = test system: MDA-157; assay: CellTiter-Glo cell viability assay, MDA-157; format: cell-based; conditions: Breast; for IC50: MDA-157, 72 hours
Protocol: as §1, §2, §3, §4

[5] = test system: Toledo; assay: CellTiter-Glo cell viability assay, Toledo; format: cell-based; conditions: Lymphoma; for IC50: Homo sapiens, 72 hours
Protocol: as §1, §2, §3, §4

[6] = test system: U266; assay: CellTiter-Glo cell viability assay, U266; format: cell-based; conditions: Myeloma; for IC50: Homo sapiens, U-266, U266, 72 hours
Protocol: as §1, §2, §3, §4

[7] = % PPB, human; format: in vitro ADME; conditions: plasma; human (hu)
[8] = Permeability (PAMPA); format: in vitro ADME; conditions: read-out: Permeabiltiy (PAMPA)
[9] = test system: K562; assay: CellTiter-Glo cell viability assay, K562; format: cell-based; conditions: CML; for IC50: Homo sapiens, K562, 72 hours
Protocol: as §1, §2, §3, §4

[10] = test system: SUDHL-4; assay: CellTiter-Glo cell viability assay, SUDHL-4; format: cell-based; conditions: Lymphoma; for IC50: Homo sapiens, SU-DHL-4, SUDHL-4, 72 hours
Protocol: as §1, §2, §3, §4

[11] = test system: SUDHL-10; assay: CellTiter-Glo cell viability assay, SUDHL-10; format: cell-based; conditions: Lymphoma; for IC50: Homo sapiens, SU-DHL10, SUDHL-10, 72 hours
Protocol: as §1, §2, §3, §4

[12] = % PPB, mouse; format: in vitro ADME; conditions: plasma; mouse (m)
[13] = test system: H929; assay: CellTiter-Glo cell viability assay, H929; format: cell-based; conditions: Myeloma; for IC50: Homo sapiens, NCI-H929, H929, 72 hours
Protocol: as §1, §2, §3, §4

[14] = test system: OCI-LY3; assay: CellTiter-Glo cell viability assay, OCI-LY3; format: cell-based; conditions: Lymphoma; for IC50: Homo sapiens, OCI-LY3, 72 hours
Protocol: as §1, §2, §3, §4

[15] = test system: BC-1; assay: CellTiter-Glo cell viability assay, BC-1; format: cell-based; conditions: Lymphoma; for IC50: Homo sapiens, BC1, BC-1, 72 hours
Protocol: as §1, §2, §3, §4

[16] = test system: A549; assay: CellTiter-Glo cell viability assay, A549; format: cell-based; conditions: NSCLC; for IC50: Homo sapiens, A549, 72 hours
Protocol: as §1, §2, §3, §4

[17] = plasma, 1.0 mg/kg IV, read-out: Half-life (converted)
[18] = plasma, 5.0 mg/kg PO, read-out: Half-life (converted)
[19] = plasma, iv, 1 mg/kg, 1.0 mg/kg IV, read-out: AUC0-∞
[20] = plasma, iv, 1 mg/kg, 1.0 mg/kg IV, read-out: Cmax
[21] = plasma, po, 5 mg/kg, 5.0 mg/kg PO, read-out: AUC0-∞
[22] = plasma, po, 5 mg/kg, 5.0 mg/kg PO, read-out: Cmax
[23] = plasma, po, 5 mg/kg, 5 mg/kg oral, read-out: AUC0-∞ (overall exposure following oral doses)

- IC50 [1]: 1100 nM
- IC50 [2]: 1380 nM
- AUC0-∞ ([3]; 1.0 mg/kg IV): 1488.05 ng·h/mL
- AUC % Extrap ([3]; 1.0 mg/kg IV): 0.25%
- Cl/F obs ([3]; 1.0 mg/kg IV): 11.5 mL/min/kg
- Rsq (>0.85) ([3]; 1.0 mg/kg IV): 0.97
- half-life ([3]; 1.0 mg/kg IV): 3.70 h
- AUC % Extrap ([3]; 5.0 mg/kg PO): 0.75%
- Cmax ([3]; 5.0 mg/kg PO): 757.43 ng/mL
- Rsq (>0.85) ([3]; 5.0 mg/kg PO): 0.99
- AUC(0-t) ([3]; plasma, 1.0 mg/kg IV): 1440 ng·h/mL
- Tmax ([3]; plasma, 1.0 mg/kg IV): 0.08 h
- half-life [3, 17]: 3.7 h
- Vd ([3]; plasma, 1.0 mg/kg IV): 1.21 L/kg
- AUC(0-t) ([3]; plasma, 5.0 mg/kg PO): 3220 ng·h/mL
- CL/F ([3]; plasma, 5.0 mg/kg PO): 21 mL/min/kg
- Tmax ([3]; plasma, 5.0 mg/kg PO): 0.5 h
- bioavailability ([3]; plasma, 5.0 mg/kg PO): 53.4%
- half-life [3, 18]: 3.39 h
- Vd/F ([3]; plasma, 5.0 mg/kg PO): 6.16 L/kg
- AUC(0-inf) [3, 19]: 1490 ng·h/mL
- Cmax [3, 20]: 1290 ng/mL
- AUC(0-inf) [3, 21]: 3970 ng·h/mL
- Cmax [3, 22]: 757 ng/mL
- AUC(0-inf) [3, 23]: 3970 ng·h/mL
- IC50 [6]: 1170 nM
- fraction unbound [7]: 0.0056
- Papp [8]: 1.68 ×10⁻⁶ cm/s
- IC50 [9]: 1580 nM
- IC50 [10]: 240 nM
- IC50 [11]: 550 nM
- fraction unbound [12]: 0.0045
- IC50 [13]: 830 nM
- IC50 [14]: 1050 nM
- IC50 [16]: 2290 nM
SMILES: O=C(NO)c1ccc(Nc2nc3ccccc3n2CC2CCCCC2)cc1 [ID #1, 4-((1-(cyclohexylmethyl)-1H-benzo[d]imidazol-2-yl)amino)-N-hydroxybenzamide]
- Improvement ID #1 over ID #3 Percent ([1]; RS4-11): 54.92%
- Improvement ID #1 over ID #3 fold ([1]; RS4-11): 2.22 fold
- Improvement ID #1 over ID #3 Percent [2]: 52.08%
- Improvement ID #1 over ID #3 fold [2]: 2.09 fold
- Improvement ID #1 over ID #3 Percent ([4]; MDA-157): 63.77%
- Improvement ID #1 over ID #3 fold ([4]; MDA-157): 2.76 fold
- IC50 [4]: 2750 nM
- IC50 [5]: 810 nM
- Improvement ID #1 over ID #3 Percent [5]: 74.77%
- Improvement ID #1 over ID #3 fold [5]: 3.96 fold
- Improvement ID #1 over ID #3 Percent ([6]; U266): 71.46%
- Improvement ID #1 over ID #3 fold ([6]; U266): 3.50 fold
- Improvement ID #1 over ID #3 Percent ([9]; K562): 69.90%
- Improvement ID #1 over ID #3 fold ([9]; K562): 3.32 fold
- Improvement ID #1 over ID #3 Percent ([10]; SUDHL-4): 94.24%
- Improvement ID #1 over ID #3 fold ([10]; SUDHL-4): 17.38 fold
- Improvement ID #1 over ID #3 Percent ([11]; SUDHL-10): 63.58%
- Improvement ID #1 over ID #3 fold ([11]; SUDHL-10): 2.75 fold
- Improvement ID #1 over ID #3 Percent ([13]; H929): 39.86%
- Improvement ID #1 over ID #3 fold ([13]; H929): 1.66 fold
- Improvement ID #1 over ID #3 Percent ([14]; OCI-LY3): 54.15%
- Improvement ID #1 over ID #3 fold ([14]; OCI-LY3): 2.18 fold
- IC50 [15]: 1790 nM
- Improvement ID #1 over ID #3 Percent ([15]; BC-1): 63.69%
- Improvement ID #1 over ID #3 fold ([15]; BC-1): 2.75 fold
- Improvement ID #1 over ID #3 Percent ([16]; A549): 77.10%
- Improvement ID #1 over ID #3 fold ([16]; A549): 4.37 fold

- IC50 [1]: 2440 nM
- IC50 [2]: 2880 nM
- AUC0-∞ ([3]; 1.0 mg/kg IV): 1193.68 ng·h/mL
- AUC % Extrap ([3]; 1.0 mg/kg IV): 0.16%
- Cl/F obs ([3]; 1.0 mg/kg IV): 14 mL/min/kg
- Rsq (>0.85) ([3]; 1.0 mg/kg IV): 0.92
- half-life ([3]; 1.0 mg/kg IV): 2.37 h
- AUC % Extrap ([3]; 5.0 mg/kg PO): 0.38%
- Cmax ([3]; 5.0 mg/kg PO): 348.57 ng/mL
- Rsq (>0.85) ([3]; 5.0 mg/kg PO): 1.00
- AUC(0-t) ([3]; plasma, 1.0 mg/kg IV): 1190 ng·h/mL
- Tmax ([3]; plasma, 1.0 mg/kg IV): 0.08 h
- half-life [3, 17]: 2.37 h
- Vd ([3]; plasma, 1.0 mg/kg IV): 1.96 L/kg
- AUC(0-t) ([3]; plasma, 5.0 mg/kg PO): 1640 ng·h/mL
- CL/F ([3]; plasma, 5.0 mg/kg PO): 50.5 mL/min/kg
- Tmax ([3]; plasma, 5.0 mg/kg PO): 0.25 h
- bioavailability ([3]; plasma, 5.0 mg/kg PO): 27.6%
- half-life [3, 18]: 2.99 h
- Vd/F ([3]; plasma, 5.0 mg/kg PO): 13.1 L/kg
- AUC(0-inf) [3, 19]: 1190 ng·h/mL
- Cmax [3, 20]: 830 ng/mL
- AUC(0-inf) [3, 21]: 1650 ng·h/mL
- Cmax [3, 22]: 349 ng/mL
- AUC(0-inf) [3, 23]: 1650 ng·h/mL
- IC50 [6]: 4100 nM
- fraction unbound [7]: 0.0064
- Papp [8]: 2.2 ×10⁻⁶ cm/s
- IC50 [9]: 5250 nM
- IC50 [10]: 4170 nM
- IC50 [11]: 1510 nM
- fraction unbound [12]: 0.0052
- IC50 [13]: 1380 nM
- IC50 [14]: 2290 nM
- IC50 [16]: 10000 nM
SMILES: O=C(NO)c1ccc(Nc2nc3ccccc3n2C2CCCCCC2)cc1 [ID #3, 4-((1-cycloheptyl-1H-benzo[d]imidazol-2-yl)amino)-N-hydroxybenzamide]
- IC50 [4]: 7590 nM
- IC50 [5]: 3210 nM
- IC50 [15]: 4930 nM

Source: patent publication US11236052B2, “Aminobenzimidazole derivatives, treatments, and methods of inhibiting histone deacetylase” (TRANSLATIONAL DRUG DEVELOPMENT, LLC, priority 2017, dated 2022)
